Results: patent publication US6831079B1, “Vasopressin agonist formulation and process” (American Cyanamid Company, priority 1999, dated 2004)
Several values for one entry are separate records, joined by “and”; a condition that tells them apart may be missing. Identical values can stand only once.

What was measured:
[1] = target: Vasopressin V2 (Rattus norvegicus, UniProt Q00788); assay: Vasopressin V2 agonist effects in normal conscious water-loaded rats; assay type: in vivo; design: from tissue; host or cells: whole living Sprague-Dawley rat; the receptor is the animal's own (renal, by own knowledge); details: Sprague-Dawley (CD) rats, 10 mg/kg oral; for Osmolality (% Increase): change in osmolality as percent of control; for Urine Volume (% decrease): vs. control, urine collected four hours
Vasopressin V2, sequence (Q00788 whole entry): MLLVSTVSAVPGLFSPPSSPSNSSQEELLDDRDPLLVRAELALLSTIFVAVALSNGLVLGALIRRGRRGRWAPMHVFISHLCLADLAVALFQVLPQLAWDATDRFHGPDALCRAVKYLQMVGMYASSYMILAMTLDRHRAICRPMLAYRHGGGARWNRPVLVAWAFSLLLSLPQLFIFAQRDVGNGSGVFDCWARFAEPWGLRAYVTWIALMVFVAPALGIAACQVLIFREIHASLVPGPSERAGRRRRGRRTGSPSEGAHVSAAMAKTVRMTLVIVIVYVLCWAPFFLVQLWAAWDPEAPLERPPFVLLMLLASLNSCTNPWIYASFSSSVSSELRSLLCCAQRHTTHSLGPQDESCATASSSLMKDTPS
Description: Vasopressin V2 Agonist Effects of Test Compounds in Normal Conscious Water-loaded Rats
Male or female normotensive Sprague-Dawley rats (Charles River Laboratories, Inc., Kingston, N.Y.) of 350-500 g body weight were supplied with standard rodent diet (Purina Rodent Lab. Chow 5001) and water ad libitum. On the day of test, rats were placed individually into metabolic cages equipped with devices to separate the feces from the urine and containers for collection of urine. […] The vehicle used was 20% dimethylsulfoxide (DMSO) in 2.5% preboiled corn starch. Thirty minutes after dosing the test compound, rats were gavaged with water at 30 ml/kg into the stomach using a feeding needle. During the test, rats were not provided with water or food. Urine was collected for four hours after dosing of the test compound. At the end of four hours, urine volume was measured. Urinary osmolality was determined using a Fiske One-Ten Osmometer (Fiske Associates, Norwood, Mass., 02062) or an Advanced CRYOMATIC Osmometer, Model 3C.2 (Advanced Instruments, Norwood, Mass.). Determinations of Na^+, K^+ and Cl^− ion were carried out using ion specific electrodes in a Beckman SYNCHRON EL-ISE Electrolyte System analyzer. The urinary osmolality should increase proportionally. In the screening test, two rats were used for each compound. If the difference in the urine volume of the two rats was greater than 50%, a third rat was used.

Row | Structure (SMILES) | Osmolality (% Increase) [1] [%] | Urine Volume (% decrease) [1] [%] | melting point
1 | O=C(c1ccc(-c2ncn[nH]2)cc1Cl)N1Cc2cccn2Cc2ccccc21 [Example 83, [2-Chloro-4-(2H-1,2,4-triazol-3-yl)-phenyl]-(5H,11H-pyrrolo[2,1-c][1,4]-benzodiazepin-10-yl)-methanone] | 442 | 85 | 174 to 177 °C
2 | Cc1ccn(-c2ccc(C(=O)N3Cc4ccc(CN(C)C)n4Cc4ccccc43)c(Cl)c2)n1 [Example 87, [2-Chloro-4-(3-methyl-pyrazol-1-yl)-phenyl]-(3-dimethylaminomethyl-5H,11H-pyrrolo[2,1-c][1,4]benzodiazepin-10-yl)-methanone] | 214 | 71 | 100 to 102 °C
3 | Cc1cnn(-c2ccc(C(=O)N3Cc4cccn4Cc4ccccc43)c(Cl)n2)c1 [Example 101, [2-Chloro-6-(4-methylpyrazol-1-yl)-pyridin-3-yl](5H,11H-pyrrolo[2,1-c][1,4]benzodiazepin-10-yl)-methanone] | 376 | 76 | 155 to 156 °C
4 | Cc1ccn(-c2ccc(C(=O)N3Cc4ccc(C)n4Cc4ccccc43)c(Cl)c2)n1 [Example 18, [2-Chloro-4-(3-methylpyrazol-1-yl)-phenyl]-(3-methyl-5H,11H-pyrrolo[2,1-c][1,4]benzodiazepin-10-yl)-methanone] | 214 | 52 | 178 to 180 °C
5 | O=C(c1ccc(-c2nnn[nH]2)cc1Cl)N1Cc2cccn2Cc2ccccc21 [Example 86, [2-Chloro-4-(1H-tetrazol-5-yl)-phenyl]-(5H,11H-pyrrolo[2,1-c][1,4]benzodiazepin-10-yl)-methanone] | 86 | 5 | 218 to 220 °C
6 | Cc1ccn(-c2ccc(C(=O)N3Cc4cccn4Cc4ccccc43)c(Cl)n2)n1 [Example 100, [2-Chloro-6-(3-methylpyrazol-1-yl)-pyridin-3-yl]-(5H,11H-pyrrolo[2,1-c][1,4]benzodiazepin-10-yl)-methanone] | 248 | 24 | 171 to 172 °C
7 | O=C(O)c1ccc(C(=O)N2Cc3cccn3Cc3ccccc32)c(Cl)c1 [Example 78, 3-Chloro-4-(5H,11H-Pyrrolo[2,1-c][1,4]benzodiazepine-10-carbonyl)-benzoic Acid] | 115 | 21 | 198 to 199 °C
8 | NC(=O)c1ccc(C(=O)N2Cc3cccn3Cc3ccccc32)c(Cl)c1 [Example 79, 3-Chloro-4-(5H,11H-pyrrolo[2,1-c][1,4]benzodiazepine-10-carbonyl)-benzamide] | 123 | 38 | 211 to 212 °C
9 | Cc1ncn(-c2ccc(C(=O)N3Cc4cccn4Cc4ccccc43)c(Cl)c2)n1 [Example 102, [2-Chloro-4-(3-methyl-1,2,4-triazol-1-yl)-phenyl](5H,11H-pyrrolo[2,1-c]-[1,4]benzodiazepin-10-yl)-methanone] | – | – | 191 to 193 °C
10 | Cc1ccn(-c2ccc(C(=O)O)c(Cl)c2)n1 [Example 97, 2-Chloro-4-(3-methyl-1H-pyrazol-1-yl)-benzoic Acid] | 106 | 3 | 192 to 193 °C
11 | Cc1ccn(-c2ccc(C(=O)N3Cc4cccn4Cc4ccccc43)c(Cl)c2)n1 (single isomer, unassigned) [Example 9A] | 325 | 70 | 137 to 138 °C and 141 to 143 °C
12 | CC(=O)c1ccc(C(=O)N2Cc3cccn3Cc3ccccc32)c(Cl)c1 [Example 121, 1-[4-(5H,11H-pyrrolo[2,1-c][1,4]benzodiazepine-10-carbonyl)-3-chlorophenyl]-ethanone] | 155 | 22 | 98 to 100 °C
13 | Cc1ccn(-c2ccc(C(=O)N3Cc4ccc(Br)n4Cc4ccccc43)c(Cl)c2)n1 [Example 88, (3-Bromo-5H,11H-pyrrolo[2,1-c][1,4]benzodiazepin-10-yl)-[2-chloro-4-(3-methyl-pyrazol-1-yl)-phenyl]-methanone] | 226 | 68 | 148 to 149 °C (dec.)
14 | Cc1ccn(-c2ccc(C(=O)N3Cc4cccn4Cc4ccccc43)c(F)c2)n1 [Example 92, [2-Fluoro-4-(3-methyl-pyrazol-1-yl)-phenyl]-(5H,11H-pyrrolo[2,1-c][1,4]-benzodiazepin-10-yl)-methanone] | 454 | 69 | 192 to 193 °C
15 | Cc1ncn(-c2ccc(C(=O)N3Cc4cccn4Cc4ccccc43)c(C(F)(F)F)c2)n1 [Example 103, [4-(3-Methyl-1,2,4-triazol-1yl)-2-trifluoromethyl-phenyl](5H,11H-pyrrolo[2,1-c][1,4]benzodiazepin-10-yl)-methanone] | – | – | 148 to 150 °C
16 | O=C(c1ccc(F)cc1F)N1Cc2cccn2Cc2ccccc21 [Example 91, (2,4-Difluoro-phenyl)-(5H,11H-pyrrolo[2,1-c][1,4]benzodiazepin-10-yl)-methanone] | 69 | 22 | –

Other lines, results leading:

Row | Osmolality (% Increase) [1] [%] | Urine Volume (% decrease) [1] [%] | melting point | Structure (SMILES)
17 | 150 | 22 | 166 to 167 °C | O=C(c1ccc(-n2ccc(C(F)(F)F)n2)cc1)N1Cc2cccn2Cc2ccccc21 [Example 62, (5H,11H-Pyrrolo[2,1-c][1,4]benzodiazepin-10-yl)-[4-(3-trifluoromethyl-pyrazol-1-yl)-phenyl]-methanone]
18 | 264 | 84 | 148.5 to 150 °C | Cn1ccc(-c2ccc(C(=O)N3Cc4cccn4Cc4ccccc43)c(Cl)c2)n1 [Example 71, [2-Chloro-4-(1-methyl-1H-pyrazol-3-yl)-phenyl]-(5H,11H-pyrrolo[2,1-c]-[1,4]benzodiazepine-10-yl)-methanone]
19 | – | 72 | 193 to 195 °C | Cc1nc(-c2ccc(C(=O)N3Cc4cccn4Cc4ccccc43)cc2)n(C)n1 [Example 51, [4-(2,5-Dimethyl-2H-[1,2,4]triazol-3-yl)-phenyl]-(5H,11H-pyrrolo[2,1-c]-[1,4]benzodiazepin-10-yl)-methanone]
20 | 165 | 54 | 179 to 181 °C | Cc1cnn(-c2ccc(C(=O)N3Cc4cccn4Cc4ccccc43)cc2)c1 [Example 60, [4-(4-Methyl-pyrazol-1-yl)-phenyl]-(5H,11H-pyrrolo[2,1-c][1,4]-benzodiazepin-10-yl)-methanone]
21 | 362 | 68 | 105 to 110 °C | CCCC(=O)n1ccc(-c2ccc(C(=O)N3Cc4cccn4Cc4ccccc43)cc2)n1 [Example 33, 1-{3-[4-(5H,11H-Pyrrolo[2,1-c][1,4]benzodiazepine-10-carbonyl)-phenyl]-pyrazol-1-yl}-butan-1-one]
22 | 288 | 77 | 173 to 175 °C | Cn1cc(-c2ccc(C(=O)N3Cc4cccn4Cc4ccccc43)cn2)cn1 [Example 57, [6-(1-Methyl-1H-pyrazol-4-yl)-pyridin-3-yl]-(5H,11H-pyrrolo[2,1-c][1,4]-benzodiazepin-10-yl)-methanone]
23 | 370 | 71 | 150 to 157 °C | O=C(c1ccc(-c2ccn(C(=O)c3ccc(F)cc3Cl)n2)cc1)N1Cc2cccn2Cc2ccccc21 [Example 37, {4-[1-(2-Chloro-4-fluoro-benzoyl)-1H-pyrazol-3-yl]-phenyl}-(5H,11H-pyrrolo[2,1-c][1,4]benzodiazepin-10-yl}methanone]
24 | 261 | 66 | 177 to 179 °C | Cc1noc(-c2ccc(C(=O)N3Cc4cccn4Cc4ccccc43)cc2)n1 [Example 52, [4-(3-Methyl[1,2,4]oxadiazol-5-yl)-phenyl]-(5H,11H-pyrrolo-[2,1-c][1,4]-benzodiazepin-10-yl)-methanone]
25 | 164 | 80 | 200 to 201 °C | Cn1cc(-c2ccc(C(=O)N3Cc4cccn4Cc4ccccc43)cc2)cn1 [Example 55, [4-(1-Methyl-1H-pyrazol-4-yl)-phenyl]-(5H,11H-pyrrolo[2,1-c][1,4]-benzodiazepin-10-yl)-methanone]
26 | – | – | 171 to 172 °C | O=C(c1ccc(-n2ccnc2)cc1)N1Cc2cccn2Cc2ccccc21 [Example 63, [4-(Imidazol-1-yl)-phenyl]-(5H,11H-pyrrolo[2,1-c][1,4]benzodiazepin-10-yl)-methanone]
27 | – | – | 225 to 227 °C | O=C(c1ccc(-c2ncn[nH]2)cc1)N1Cc2cccn2Cc2ccccc21 [Example 48, (5H,11H-Pyrrolo[2,1-c][1,4]benzodiazepin-10-yl)-[4-(2H-[1,2,4]triazol-3-yl)-phenyl]-methanone]
